Test results: patent publication US8173633B2, “Protein kinase C activity enhancer containing alkyl ether derivative or salt thereof” (Toyama Chemical Co., Ltd., priority 2006, dated 2012)

Target: T1, PKCε (Rattus norvegicus, UniProt P09216)
T1 construct: The cerebral cortex was removed from 18-day fetuses of Wistar/ST rats; endogenous in cells; host or cells: primary cultured cerebral cortex cells from 18-day fetuses of Wistar/ST rats
T1 sequence (P09216 1-737): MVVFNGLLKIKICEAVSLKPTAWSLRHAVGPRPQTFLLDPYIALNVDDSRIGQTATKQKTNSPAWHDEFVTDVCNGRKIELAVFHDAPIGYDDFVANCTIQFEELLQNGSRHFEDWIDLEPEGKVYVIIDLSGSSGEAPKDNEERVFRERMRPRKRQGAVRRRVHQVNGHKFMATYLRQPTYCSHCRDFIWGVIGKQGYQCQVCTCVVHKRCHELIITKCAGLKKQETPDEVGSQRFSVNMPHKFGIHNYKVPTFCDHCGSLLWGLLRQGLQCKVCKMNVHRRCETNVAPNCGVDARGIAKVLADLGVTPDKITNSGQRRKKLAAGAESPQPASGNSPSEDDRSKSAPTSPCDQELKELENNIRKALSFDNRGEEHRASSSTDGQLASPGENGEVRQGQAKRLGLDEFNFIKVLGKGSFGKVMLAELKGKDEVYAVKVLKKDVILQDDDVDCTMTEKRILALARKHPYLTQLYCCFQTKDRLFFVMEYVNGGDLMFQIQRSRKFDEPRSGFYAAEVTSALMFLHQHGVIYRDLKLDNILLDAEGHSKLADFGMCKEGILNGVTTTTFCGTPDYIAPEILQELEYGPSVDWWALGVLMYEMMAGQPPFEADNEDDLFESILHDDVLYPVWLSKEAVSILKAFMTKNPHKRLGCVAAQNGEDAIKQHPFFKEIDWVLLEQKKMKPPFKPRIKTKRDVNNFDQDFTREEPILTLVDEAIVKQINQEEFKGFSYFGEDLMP
Assay: PKC activity enhancing effect in cultured cells (PKCε migration from cytosol to membrane fraction, western blotting)
Type: cell-based, Wistar/ST rats
Conditions: cultured fetal rat cerebral cortex cells, 0.1 μmol/L in terms of T-817, FIG. 1
Procedure: The PKC activity was determined, according to the method of Etcheberrigaray et al. (Proceedings of the National Academy of Sciences of the United States of America, 2004, Vol. 101, No. 30, p. 11141-11146), as applicable. At the time of activation, PKC migrates from the cytoplasm to membranes. The PKC level in the membrane fraction over that in the cytosol fraction was taken as the index of PKC activation. In this experiment, the activity of PKCε, a known isoform of PKC, was measured.
Cultured cells were prepared following the method of Hirata et al. (J. Pharmacol. Exp. Ther., 2005, Vol. 314, No. 1, p. 252-259). […]
On Day 8 from the start of the culturing, T-817MA was added to the cells to a final concentration of 0.1 μmol/L, in terms of T-817, After this addition, the cells were washed with PBS at 0 (untreated), 1, 2 and 4 hours. […] The protein concentration in the cytosol fraction and the membrane fraction was measured, and the protein content in each sample was adjusted to a certain constant level with the extraction buffer or the extraction buffer containing Triton X-100, These samples were then diluted with electrophoresis buffer containing mercaptoethanol (manufactured by Wako Pure Chemical Industries Ltd.) and SDS-PAGE (40 mA, 30 minutes) was carried on 10% polyacrylamide gel. […]

With `O=C(O)/C=C\C(=O)O.OC1CN(CCCOCCc2ccc3sccc3c2)C1` [T-817MA] the “PKCε migration from the cytoplasm to membranes (index of PKC activation)” value (2 hours after treatment) was “migrated from the cytoplasm to membranes” and the “PKCε migration from the cytoplasm to membranes (index of PKC activation)” value (4 hours after treatment) was “migrated from the cytoplasm to membranes”.
